Source: patent US8900444B2, “Switchable hydrophilicity solvents and methods of use thereof” (Queen's University at Kingston, priority 2009, dated 2014)
Values belong to the compound of their own block, whether it stands above or below them.

Tests used:
Type in all cases: physicochemical
[1] = Qualitative switchability assessment of BA (Example 1B); conditions: 80 °C oil bath, stirred
Source text: The BA amidine's ability to act as a switchable hydrophilicity solvent for the separation of a selected substance is dependent on its ability to switch from the hydrophobic form to a hydrophilic form. This is achieved by adding water to provide an aqueous layer and decreasing the pH of the aqueous layer, namely by dissolving CO2 in the aqueous layer. When carbon dioxide dissolves in water, it forms carbonic acid with pKa1 of 6.4. The resultant dissociation is sufficient to protonate a hydrophobic amidine, causing it to become charged forming a hydrophilic amidinium bicarbonate (BAB). In this preliminary switching study, the amidine's ability to act as a base and its ability to switch hydrophilicity were studied.
Switching behavior was studied for BA over various periods of time. A glass vial (4 mL) was prepared, containing distilled water (1.0 mL) and BA amidine (0.5 mL).
CO2 was bubbled through the vial for roughly 30 minutes, until the top layer had disappeared showing that a hydrophilic solution of BAB in water had been formed.
A magnetic stirrer was placed in the vial. The vial was suspended in an 80° C. oil bath and stirred. The vial was intermittently removed from the bath and monitored for the presence of a second layer after 20, 50 and 75 minutes. The formation of a second layer (hydrophobic BA) was noted after 20 minutes in the oil bath.

[2] = Polarity study with solvatochromatic dye Nile Red (Example 3); conditions: water-saturated BA or aqueous solution of BAB
Experimental: The maximum wavelength of absorption, λmax, of a switchable hydrophilicity solvent, N,N,N′-tributylpentanamidine (BA), was analyzed in its hydrophobic and hydrophilic forms using the solvatochromatic dye, Nile Red. A 1 Dram vial was prepared containing 1 mL of distilled water to which 1 mL of BA was added. […] This ensured saturation of the BA phase with water. The top phase comprising the BA liquid was pipetted into a quartz cuvette (Semi-Micro Cells, Self Masking Black Walls Spectrosil® Quartz, Starna Cells, Atascadero, Calif., USA) and 1 mg of Nile Red was added, to provide a bright orange-magenta solution. The ultraviolet absorbance spectrum was acquired on an Agilent Technologies ultraviolet/visible spectrometer 50-60 Hz with UV-Visible Chemstation software. The λmax was 510 nm. Distilled water (1.0 mL) was then added to the quartz cuvette and carbon dioxide was slowly bubbled into the mixture for 1 hour to switch the BA to its ionic form, N,N,N′-tributylpentanamidinium bicarbonate (BAB), after which the homogenous mixture turned purple. The ultraviolet absorbance spectrum of the aqueous solution of the dye and ionic salt was then acquired as discussed in the previous paragraph. The λmax was 570 nm.

[3] = Quantitative switching study of BA by 1H NMR (Example 1D)
Experimental: A methanol-d4 solution was prepared containing a sodium acetate internal standard (48.8 mM).
Two 4 mL glass vials containing 1.0 mL D2O and 0.5 mL BA were prepared and shaken. A 50 μL sample was withdrawn from each layer of one vial and combined with 0.50 mL of the sodium acetate standard solution in each of two NMR tubes: the top layer (BA) in a first tube; the bottom layer (aqueous) in a second tube.
Carbon dioxide was bubbled through the unsampled vial until the BA had completely converted to BAB, as evidenced by the disappearance of the top layer. The pH of the solution was measured using pH paper to be approximately 8-9. A 50 μL sample was withdrawn from the BAB/D2O solution and added to 0.50 mL of the sodium acetate standard solution in a third NMR tube.
The 4.0 mL vial from which the last NMR sample was withdrawn was then heated at 80° C. for 1 h and stirred by a magnetic stirrer. Bubbles of CO2 were observed escaping from the solution and a top layer, hydrophobic amidine, appeared. After cooling the vial to room temperature, a 50 μL sample was withdrawn from each layer and combined with 0.50 mL of the sodium acetate standard in two NMR tubes: the top layer (BA) in a fourth tube; the bottom layer (aqueous) in a fifth tube.
The NMR spectra of all five samples are shown in FIG. 10 with the first to fifth tubes shown from top to bottom. […] In addition, using the ‘c’ and ‘d’ protons provided stronger signals, to improve accuracy. Based on the strength of the ‘c’ and ‘d’ signals, 11% of the BA remained in the aqueous phase as BAB after the experiment
Using dioxane as the internal standard gave the same results (11% BAB retention in the aqueous phase) as sodium acetate.
The same experiment was repeated except that the temperature of the heating of the 4.0 mL vial was increased from 80° C. to 90° C. A similar retention of BAB in the aqueous phase (12%) was observed.

[4] = Separation of switchable solvent from soybean oil with CO2/carbonated water (Examples 2A, 2C)
Experimental: A 4 mL vial was prepared containing 1.0 mL D2O, 0.5 mL BA and 0.5 mL soybean oil. The vial was shaken thoroughly and allowed to settle, showing a 1.0 mL upper layer (soybean oil and BA) and a 1.0 mL lower layer (D2O). ^1H NMR samples (50 μL) were withdrawn from each layer and mixed with methanol-d4 (0.5 mL) containing a dioxane internal standard (51.5 mM). Another sample was withdrawn from the upper layer for ^1H NMR analysis in CDCl3, because soybean oil is not miscible with methanol. The same volume was discarded from the bottom layer to maintain the initial ratio.
CO2 was bubbled through the system for 1.5 h, at which time the top layer appeared to have halved in volume. Using the same system, ^1H NMR analysis was again conducted on both layers, the bottom layer in methanol-d4 and the top layer in CDCl3.
A 1.0 mL portion of the bottom layer was withdrawn and transferred to a new 4.0 mL vial. A magnetic stirrer was added and the vial was stirred at 80° C. for 1 h. Samples were withdrawn from both layers for ^1H NMR analysis in methanol-d4 with reference to the dioxane internal standard.
The switching behavior of BA in the presence of soybean oil was studied qualitatively and by ^1H NMR spectroscopy as shown in FIG. 11. The top spectrum is that of soy oil. The middle spectrum is that of the upper (organic) phase after the mixing of the BA, soy oil and D2O. This upper phase comprises soy oil and BA. The bottom spectrum is that of the upper (organic) phase after the addition of the CO2 trigger and comprises predominantly soy oil and any residual solvent.
The most informative ^1H NMR spectra in this experiment were those showing the separation of the soy oil and BA. Based on the integration of the peak corresponding to BA at 3.17 ppm in these spectra, 96% of the amidine was removed from the upper soybean oil layer after switching to its hydrophilic BAB form. Other spectra (not shown), collected in methanol-d4 with a dioxane internal standard, confirmed the switching behavior presented in Example 1 above, showing 11% retention of BA in the aqueous phase after heating.
It was possible to remove a high percentage of N1,N1,N4,N4-tetraethylbutane-1,4-diamine from the soybean oil be mixing with carbonated water. The percentage removal was 98.65%. In contrast, 96% of BA was removed from the soybean oil.

[5] = Miscibility of amines with water in the absence of CO2 (Example 5A); conditions: 1 mL amine + 1 mL H2O, room temperature, visual
Experimental: 1 mL of an appropriate amine was combined with 1 mL of H2O in a 4 mL vial, with the 1 and 2 mL volume lines marked. The vial was manually shaken and left to settle at room temperature. After the mixture settled, the number of phases was observed visually. This procedure was performed for all of the screened amines.

[6] = Miscibility of amines with water in the presence of CO2 (Example 5B); conditions: CO2 bubbled through amine/water mixture for at least one hour
Experimental: All of the amines that formed a biphasic mixture in Example 5A were subjected to the following test. Carbon dioxide was bubbled through the amine/water biphasic mixture, via a syringe needle, for at least one hour. Care was taken to regulate the rate of the CO2 bubbling, so as not to cause evaporation of the amine. The liquid-liquid interface was observed over the course of CO2 bubbling, and a photo was taken after 60 minutes.

[7] = Conversion of amine switchable hydrophilicity solvents back to hydrophobic form by heating (Example 5C); conditions: for loss of amine during heating (excessive volatility): 80 °C, approximately 60 minutes
Experimental: All of the amines identified as switchable hydrophilicity solvents in Example 5B (except N,N-dimethylbutylamine) were subjected to the following test. The vial containing the single-phase amine/water/CO2 mixture prepared in example 5B was heated in an oil bath at 80° C. for approximately 60 minutes. The mixture was magnetically stirred, and phase separation was observed throughout the course of heating. In the case of the N1,N1,N4,N4-tetraethylbutane-1,4-diamine/water/CO2 mixture, 5 hours of heating was required to switch it back to its hydrophobic form.

[8] = CO2 bubbling time to phase merge with and without piperazine; conditions: 5 mL amine + 5 mL water, room temperature, CO2 100 mL/min
Experimental: In some embodiments, addition of a small amount of piperazine further increases the rate of conversion of a switchable hydrophilicity solvent to its ionic form. […] In the presence of an absorption activator, specifically 10 wt % piperazine, the time of CO2 bubbling to phase merge was only 20 minutes. Although not experimentally shown, the inventors expect that piperazine would have a similar absorption activating effect for compounds of formula (1). A similar improvement in CO2 capture for aqueous solutions of tertiary amines was reported by Dubois (Chem. Eng. Tech. 32(5): 710 (2009)).

[9] = Visual and NMR study of amine switchable hydrophilicity solvents (Example 6)
Experimental: The following amines were evaluated in this series of experiments: N-ethylpiperidine, N,N-dimethylcyclohexylamine, and N,N-dimethylhexylamine. The sequence of experiments is described for one amine but was performed for all three. The visual observations are described in Table 3. 1,4-Dioxane was used as an internal standard for NMR spectroscopy.
Amine (1 mL) was combined with D2O (1 mL) in a 10 mL graduated cylinder, which was then capped with a rubber septum. The cylinder was manually shaken and left to settle at room temperature, after which the mixture appeared as two transparent liquid phases. For each amine, this procedure was simultaneously conducted in 3 identical cylinders. From the aqueous (bottom) layer of one of the three cylinders, three 250 μL samples were withdrawn, combined with equal volumes of D2O and dioxane internal standard, and analyzed by ^1H NMR spectroscopy. The spectra were consistent with the amine in the aqueous phase being in its neutral form. The graduated cylinder from which the samples were taken was discarded.
For each of two remaining graduated cylinders, carbon dioxide was bubbled through the amine/water biphasic mixture, via a syringe needle, for at least one hour. Care was taken to regulate the rate of the CO2 bubbling, so as not to cause significant evaporation of the amine. The mixture changed from a biphasic liquid mixture to a single homogeneous liquid phase. From one of the two graduated cylinders, a 300 μL sample of the homogenous liquid phase was withdrawn and mixed with an equal volume of D2O and a known quantity of dioxane internal standard. […] The graduated cylinder from which the sample was taken was discarded.
The remaining graduated cylinder, containing the single-phase amine/water/CO2 mixture prepared above, was heated in an oil bath at 80 deg. C for 1 hour. Phase separation was observed. Three 250 μL samples of the aqueous (bottom) layer were withdrawn, combined with equal volumes of D2O and a known quantity of dioxane internal standard, and analyzed by NMR spectroscopy.

[10] = listed as N,N-dimethyl-N-cyclohexylamine

SMILES: CCCCN=C(CCCC)N(CCCC)CCCC.O=C(O)O [BAB, N,N,N′-tributylpentanamidinium bicarbonate]
heating time to formation of second (hydrophobic) layer [1]: 20 min | maximum wavelength of absorption (λmax) of Nile Red [2]: 570 nm | BAB retention in the aqueous phase after heating ([3]; 80 °C, 1 h, dioxane internal standard): 11% | retention of BAB in the aqueous phase after heating ([3]; 90 °C): 12% | pH of solution after complete conversion with CO2 ([3]; BAB/D2O solution, pH paper): 8-9 | BAB ionic form converted back to BA ([3]; after heating for 1 hour): > 90%

solvent removed from soybean oil after switching to hydrophilic form ([4]; CO2 / carbonated water): 98.65% | miscibility with soybean oil ([4]; neutral hydrophobic form): miscible with soybean oil | miscibility with water under air (absence of CO2) [5]: biphasic | miscibility with water under air (absence of CO2) ([5]; listed as Et2NCH2CH2CH2CH2NEt2): immiscible | miscibility with water after CO2 treatment [6]: single-phase | miscibility with water after CO2 treatment ([6]; listed as Et2NCH2CH2CH2CH2NEt2): miscible | heating time required to switch back to hydrophobic form ([7]; amine/water/CO2 mixture, oil bath 80 °C, stirred): 5 h
SMILES: CCN(CC)CCCCN(CC)CC [N1,N1,N4,N4-tetraethylbutane-1,4-diamine]

SMILES: CN(C)C1CCCCC1 [N,N-dimethylcyclohexylamine]
time of CO2 bubbling to phase merge ([8]; 10 wt % piperazine): 20 min | time of CO2 bubbling for phase merge ([8]; absence of piperazine): 35 min | miscibility with water under air (absence of CO2) [5]: biphasic | miscibility with water under air (absence of CO2) [5, 10]: immiscible with water | miscibility with water after CO2 treatment [6]: single-phase | miscibility with water after CO2 treatment [6, 10]: became water-miscible | time of CO2 bubbling to form one homogeneous solution ([9]; 1 mL amine + 1 mL D2O): took 45 min to form one | number of layers formed without CO2 ([9]; 1 mL amine + 1 mL D2O, room temperature): formed 2 clear, | time of heating to separate into 2 layers ([9]; oil bath 80 deg. C): after 30 min, solution has | volume of bottom (aqueous) layer after heating ([9]; oil bath 80 deg. C): clear & colorless, with volume of 1 mL, | volume of top layer after heating ([9]; oil bath 80 deg. C): oily, with volume of 0.8 mL

miscibility with water under air (absence of CO2) [5]: biphasic | miscibility with water under air (absence of CO2) ([5]; listed as dipropylmethylamine): immiscible with water | miscibility with water after CO2 treatment [6]: single-phase | miscibility with water after CO2 treatment ([6]; listed as dipropylmethylamine): became water-miscible | loss of amine during heating (excessive volatility) [7]: loss of amine
SMILES: CCCN(C)CCC [methyldipropylamine]

miscibility with water under air (absence of CO2) [5]: biphasic | miscibility with water under air (absence of CO2) ([5]; listed as N,N,N-triethylamine): immiscible with water | miscibility with water after CO2 treatment [6]: single-phase | miscibility with water after CO2 treatment ([6]; listed as N,N,N-triethylamine): became water-miscible | loss of amine during heating (excessive volatility) [7]: loss of amine
SMILES: CCN(CC)CC [triethylamine]
